{"source": "patent US20260376293A1", "about": "“METHODS FOR STUDYING GPR158 PHARMACOLOGY AND IDENTIFICATION OF ITS LIGANDS” (UNIVERSITY OF FLORIDA RESEARCH FOUNDATION, INCORPORATED, priority 2022, published 2026)", "target": "T1, GPR158 (Homo sapiens, UniProt Q5T848)", "T1 sequence (Q5T848 24-1215)": "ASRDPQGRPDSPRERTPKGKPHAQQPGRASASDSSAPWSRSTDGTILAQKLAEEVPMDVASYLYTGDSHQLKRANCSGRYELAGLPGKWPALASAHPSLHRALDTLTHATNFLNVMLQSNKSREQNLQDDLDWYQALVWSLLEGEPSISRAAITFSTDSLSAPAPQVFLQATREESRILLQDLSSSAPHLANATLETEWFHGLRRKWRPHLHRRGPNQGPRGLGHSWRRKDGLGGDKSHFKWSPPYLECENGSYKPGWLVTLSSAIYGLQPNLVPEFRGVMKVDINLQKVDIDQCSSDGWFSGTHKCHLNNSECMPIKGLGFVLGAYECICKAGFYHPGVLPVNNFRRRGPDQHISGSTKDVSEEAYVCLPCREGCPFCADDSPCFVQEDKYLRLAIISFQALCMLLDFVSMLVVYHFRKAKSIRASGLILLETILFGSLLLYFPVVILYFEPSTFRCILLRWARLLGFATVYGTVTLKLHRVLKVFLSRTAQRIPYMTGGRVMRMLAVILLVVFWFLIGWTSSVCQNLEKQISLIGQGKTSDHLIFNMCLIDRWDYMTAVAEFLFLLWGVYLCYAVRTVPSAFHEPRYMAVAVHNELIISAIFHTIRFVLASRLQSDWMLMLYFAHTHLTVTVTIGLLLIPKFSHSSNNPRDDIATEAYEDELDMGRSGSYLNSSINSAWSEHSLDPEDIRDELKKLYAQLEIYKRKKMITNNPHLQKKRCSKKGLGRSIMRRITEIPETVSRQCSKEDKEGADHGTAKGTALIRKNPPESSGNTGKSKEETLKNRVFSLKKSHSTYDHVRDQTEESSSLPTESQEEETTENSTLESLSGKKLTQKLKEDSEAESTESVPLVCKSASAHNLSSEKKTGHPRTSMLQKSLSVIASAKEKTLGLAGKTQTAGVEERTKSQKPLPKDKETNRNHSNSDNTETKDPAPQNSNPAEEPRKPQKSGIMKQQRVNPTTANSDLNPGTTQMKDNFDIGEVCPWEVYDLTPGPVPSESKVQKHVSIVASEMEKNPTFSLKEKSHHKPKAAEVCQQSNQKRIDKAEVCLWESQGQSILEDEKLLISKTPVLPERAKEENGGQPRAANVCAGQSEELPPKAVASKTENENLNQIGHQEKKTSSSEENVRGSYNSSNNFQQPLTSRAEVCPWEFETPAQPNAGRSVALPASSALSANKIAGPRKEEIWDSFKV", "experiment": "BRET G protein activation assay", "assay_type": "cell-based", "parameters": "expressed in transfected cells; host or cells: HEK293FT", "settings": "panel of Gα subunits; 0.1 mM; HEK293 cells", "protocol": "FIGS. 5A-5I. Lack of the effects of glycine or taurine on GPR158 coupling to G proteins. A) Schematic of the assay design to monitor GPCR induced G protein activation. B-I) Representative traces evaluating G protein activation in BRET-based assay. The assay measures generation of the BRET signal between Gβγ and its reporter masGRK3CT-NLuc co-transfected into HEK293 cells with indicated Gα. The reaction is initiated by the addition of glycine (0.1 mM, square symbols) or taurine (0.1 mM triangle symbols) to GPR158 expressing cells. Control reactions conducted in parallel utilized canonical receptors and their ligands at 0.1 mM. The arrow indicates the injection time point of the ligand.\nThe inventors further tested whether glycine or taurine could induce GPR158 to activate G proteins as canonical GPCRs do. In these experiments, the inventors used a reverse strategy where the inventors monitored generation of the BRET signal in the same assay (FIG. 5A).\nMeasurements of BRET between Venus-Gβ1γ2 and masGRK3ct-Nluc were performed to monitor the release of free Gβγ dimers after activation of heterotrimers containing Gα subunits in living cells (described in detail in Masuho et al., 2015 (40)). […] An empty vector pcDNA3.1(±) was used in order to normalize the quantity of transfected DNA. […]", "data": [{"smiles": "NCC(=O)O", "note": "[glycine]", "values": [{"measurement": "G protein activation via GPR158", "value": "no significant signal generation"}]}, {"smiles": "NCCS(=O)(=O)O", "note": "[taurine, 2-aminoethanesulfonic acid]", "values": [{"measurement": "G protein activation via GPR158", "value": "no significant signal generation"}]}]}
